The source of these data is article PMC11796242, “Nitidine chloride inhibits the progression of hepatocellular carcinoma by suppressing IGF2BP3 and modulates metabolic pathways in an m^6A-dependent manner” (Molecular Medicine, 2025).

In the assay the target is T1, IGF2BP3 (Homo sapiens, UniProt O00425).
T1 construct: immobilised by amine coupling on CM5 chip (PDB 6GQE used only for docking)
Description: SPR (BIAcore T200, CM5 chip, immobilised IGF2BP3, […] Langmuir global fit). In kind it is binding. A general note: SPR reads the build-up and loss of mass on a sensor chip optically.

T1 sequence (O00425 whole entry): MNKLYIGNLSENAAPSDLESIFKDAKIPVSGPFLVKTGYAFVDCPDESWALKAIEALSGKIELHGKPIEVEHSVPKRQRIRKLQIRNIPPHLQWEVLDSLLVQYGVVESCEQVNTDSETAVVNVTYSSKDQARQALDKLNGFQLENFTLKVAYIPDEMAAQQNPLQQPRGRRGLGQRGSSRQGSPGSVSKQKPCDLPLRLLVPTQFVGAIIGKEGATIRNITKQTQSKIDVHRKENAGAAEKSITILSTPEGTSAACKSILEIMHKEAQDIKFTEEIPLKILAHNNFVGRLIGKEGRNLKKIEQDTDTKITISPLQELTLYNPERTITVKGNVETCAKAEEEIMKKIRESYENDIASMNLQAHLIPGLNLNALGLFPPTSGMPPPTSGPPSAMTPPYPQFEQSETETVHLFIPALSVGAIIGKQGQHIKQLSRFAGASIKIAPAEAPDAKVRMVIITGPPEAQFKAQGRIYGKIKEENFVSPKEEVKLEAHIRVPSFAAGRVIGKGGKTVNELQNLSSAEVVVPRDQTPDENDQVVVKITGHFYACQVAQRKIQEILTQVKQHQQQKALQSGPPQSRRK

As a reminder, the Kd is the free concentration of one partner at which half of the binding sites on the other are occupied at equilibrium, for simple one-to-one binding. Higher therefore signals weaker binding. With `COc1cc2c[n+](C)c3c4cc5c(cc4ccc3c2cc1OC)OCO5` [nitidine chloride], the Kd stood at 6.37 µM.
